Source: patent publication US20250144067A1, “PERSONALIZED STARVATION THERAPY FOR CANCER” (Faeth Therapeutics, Inc., priority 2021, published 2025)
Structures can show the parent of a compound that is named as a salt. Where two headings read alike, the source gives them in different places.

Experiments:
[1] = test system: NCI-H292 lung cancer cells; test: FDA drug screening, complete media vs cholesterol-free media with simvastatin (TABLE 2); type: cell-based, human
[2] = test system: NCI-H292 lung cancer cells; test: FDA drug screening, complete media vs cholesterol-free media without statin (TABLE 1); type: cell-based, human
[3] = NCI-H292 cells, cholesterol-free media with simvastatin 0.04 μM, cell growth value in FDA drug screen
[4] = NCI-H292 cells, complete media, cell growth value in FDA drug screen
[5] = complete media minus cholesterol-free media + simvastatin, >0 enhanced anti-cancer activity, about 0 neutral, <0 antagonist
[6] = Complete minus Cholesterol-free, >0 enhanced anti-cancer activity, about 0 neutral, <0 antagonist
[7] = NCI-H292 cells, cholesterol-free media without statin
[8] = NCI-H292 cells, FDA library drug in cholesterol-free media with simvastatin 0.04 μM
[9] = NCI-H292 cells, FDA library drug in complete media
[10] = NCI-H292 cells in cholesterol-free media without statin
[11] = NCI-H292 cells in complete media
[12] = NCI-H292 cells, cholesterol-free media with simvastatin 0.04 μM, FDA drug library screen (TABLE 2)
[13] = NCI-H292 cells, complete media, FDA drug library screen (TABLE 2)
[14] = complete media minus cholesterol-free media + simvastatin (0.04 μM), >0 enhanced anti-cancer activity, about 0 neutral, <0 antagonist
[15] = NCI-H292 cells, cholesterol-free media without statin, FDA drug library screen
[16] = NCI-H292 cells, complete media, FDA drug library screen
[17] = NCI-H292 cells, FDA drug library screen, cholesterol-free media with simvastatin 0.04 μM
[18] = NCI-H292 cells, FDA drug library screen, complete media
[19] = complete media vs cholesterol-free media + simvastatin (0.04 μM), >0 enhanced anti-cancer activity, about 0 neutral, <0 antagonist
[20] = NCI-H292 cells, drug in cholesterol-free media with simvastatin 0.04 μM
[21] = NCI-H292 cells, drug in complete media
[22] = Complete minus Cholesterol-free, greater than 0 enhanced anti-cancer activity, about 0 neutral, below 0 antagonist
[23] = NCI-H292 cells, FDA drug library screen, cholesterol-free media without statin
[24] = complete vs cholesterol-free media, >0 enhanced anti-cancer activity, about 0 neutral, <0 antagonist

SMILES: CN(C)C(=O)c1cc2cnc(Nc3ccc(N4CCNCC4)cn3)nc2n1C1CCCC1 [Ribociclib]
- Cholesterol-free media + simvastatin (0.04 μM) [1, 3]: 0.6195
- Complete Media [1, 4]: 0.7338
- Difference [1, 5]: 0.11
- Difference [2, 6]: −0.30
- Cholesterol-free [2, 7]: 1.15
- Complete ([2]; NCI-H292 cells, complete media): 0.8537

SMILES: Cc1cc(C(C)(C)C)cc(C)c1CC1=NCCN1 [Xylometazoline (hydrochloride)]
- Cholesterol-free media + simvastatin (0.04 μM) [1, 8]: 1.159
- Complete Media [1, 9]: 0.7803
- Difference ([1]; complete media vs cholesterol-free media + simvastatin (0.04 μM), […]): −0.38
- Difference ([2]; Complete minus Cholesterol-free, […]): −0.59
- Cholesterol-free [2, 10]: 1.406
- Complete [2, 11]: 0.8153

SMILES: C/C(=C\c1csc(C)n1)[C@@H]1C[C@@H]2O[C@]2(C)CCC[C@H](C)[C@H](O)[C@@H](C)C(=O)C(C)(C)[C@@H](O)CC(=O)N1 [Ixabepilone]
- Cholesterol-free media + simvastatin (0.04 μM) [1, 12]: 0.1261
- Complete Media [1, 13]: 0.1336
- Difference [1, 14]: 0.01
- Difference [2, 6]: −0.01
- Cholesterol-free [2, 15]: 0.1019
- Complete [2, 16]: 0.09155

SMILES: C[C@]12CCC(=O)C=C1CC[C@@H]1[C@@H]2C(=O)C[C@@]2(C)[C@H]1CC[C@]2(O)C(=O)CO [Cortisone]
- Cholesterol-free media + simvastatin (0.04 μM) [1, 17]: 1.033
- Complete Media [1, 18]: 0.8818
- Difference [1, 19]: −0.15
- Difference [2, 6]: −0.30
- Cholesterol-free [2, 7]: 1.216
- Complete ([2]; NCI-H292 cells, complete media): 0.9117

SMILES: C[C@]12C=CC(=O)N[C@@H]1CC[C@@H]1[C@@H]2CC[C@]2(C)[C@@H](C(=O)Nc3cc(C(F)(F)F)ccc3C(F)(F)F)CC[C@@H]12 [Dutasteride]
- Cholesterol-free media + simvastatin (0.04 μM) [1]: 1.633
- Complete Media [1]: 1.205
- Difference [1]: −0.43
- Cholesterol-free [2]: 0.7204
- Complete [2]: 0.8443
- Difference [2]: 0.12

SMILES: Cn1ncnc1[C@H]1c2n[nH]c(=O)c3cc(F)cc(c23)N[C@@H]1c1ccc(F)cc1 [Talazoparib]
- Cholesterol-free media + simvastatin (0.04 μM) [1, 3]: 0.3041
- Complete Media [1, 4]: 0.3489
- Difference [1, 5]: 0.04
- Difference [2, 6]: −0.06
- Cholesterol-free [2, 15]: 0.2349
- Complete [2, 16]: 0.179

SMILES: CCCCCN(C)CCC(O)(P(=O)(O)O)P(=O)(O)O [Ibandronate (Sodium Monohydrate)]
- Cholesterol-free media + simvastatin (0.04 μM) [1, 8]: 1.077
- Complete Media [1, 9]: 0.796
- Difference [1, 19]: −0.28
- Difference [2, 6]: −0.03
- Cholesterol-free [2, 15]: 1.101
- Complete [2, 16]: 1.074

SMILES: O=C1c2cccc(O)c2C(=O)c2c(O)cccc21 [Danthron]
- Cholesterol-free media + simvastatin (0.04 μM) [1, 20]: 1.634
- Complete Media [1, 21]: 1.469
- Difference [1, 19]: −0.16
- Difference [2, 22]: −0.15
- Cholesterol-free [2, 23]: 0.9427
- Complete [2, 18]: 0.7921

SMILES: COc1ccc2c3c1O[C@H]1C[C@@H](O)C=C[C@@]31CCN(C)C2 [Galanthamine]
- Cholesterol-free media + simvastatin (0.04 μM) [1, 12]: 1.051
- Complete Media [1, 13]: 1.046
- Difference ([1]; complete media minus cholesterol-free media + simvastatin (0.04 μM), […]): −0.01
- Cholesterol-free [2, 7]: 1.164
- Complete ([2]; NCI-H292 cells, complete media): 0.829
- Difference ([2]; complete vs cholesterol-free media, […]): −0.33

SMILES: Nc1nc(CC(=O)Nc2ccc(CCNC[C@H](O)c3ccccc3)cc2)cs1 [Mirabegron]
- Cholesterol-free media + simvastatin (0.04 μM) [1, 17]: 1.317
- Complete Media [1, 18]: 1.183
- Difference [1, 19]: −0.13
- Cholesterol-free [2, 7]: 1.131
- Complete ([2]; NCI-H292 cells, complete media): 0.7731
- Difference ([2]; complete vs cholesterol-free media, greater than 0 enhanced anti-cancer activity, about 0 neutral, below 0 antagonists): −0.36

SMILES: N=C(N)NC(=O)c1nc(Cl)c(N)nc1N [Amiloride hydrochloride dihydrate]
- Cholesterol-free media + simvastatin (0.04 μM) [1, 20]: 1.232
- Complete Media [1, 21]: 1.07
- Difference [1, 19]: −0.16
- Cholesterol-free [2, 15]: 0.9043
- Complete [2, 16]: 1.06
- Difference [2, 24]: 0.16

SMILES: NS(=O)(=O)c1cc2c(cc1Cl)N=CNS2(=O)=O [Chlorothiazide]
- Cholesterol-free media + simvastatin (0.04 μM) [1, 20]: 1.126
- Complete Media [1, 21]: 0.9372
- Difference [1, 19]: −0.19
- Cholesterol-free [2, 15]: 0.8661
- Complete [2, 16]: 1.321
- Difference [2, 24]: 0.45

SMILES: Nc1cc(F)ccc1NC(=O)c1ccc(CNC(=O)/C=C/c2cccnc2)cc1 [Tucidinostat]
- Cholesterol-free media + simvastatin (0.04 μM) [1, 3]: 0.5739
- Complete Media [1, 4]: 0.6176
- Difference [1, 5]: 0.04
- Difference ([2]; Complete minus Cholesterol-free, greater than 0 enhanced anti-cancer activity, about 0 neutral, below 0 antagonists): −0.51
- Cholesterol-free [2, 10]: 1.245
- Complete [2, 11]: 0.7308

SMILES: C=C[C@@H]1C[C@]1(NC(=O)[C@@H]1C[C@@H](Oc2ncc(OC)c3ccc(Cl)cc23)CN1C(=O)[C@@H](NC(=O)OC(C)(C)C)C(C)(C)C)C(=O)NS(=O)(=O)C1CC1 [Asunaprevir]
- Cholesterol-free media + simvastatin (0.04 μM) [1, 12]: 1.005
- Complete Media [1, 13]: 0.9979
- Difference [1, 14]: −0.01
- Difference [2, 22]: −0.09
- Cholesterol-free [2, 23]: 1.081
- Complete [2, 18]: 0.9902
